Test results from ChEMBL document CHEMBL6153109, “Switching Roles─Exploring Concentration-Dependent Agonistic versus Antagonistic Behavior of Integrin Ligands” (J Med Chem, 2025).
pIC50: −log10 of the molar value. The source made the active and inactive calls. No cut-off for these calls is given here.

Columns and labels:
[1] = molecular target: T1, Integrin alpha-5/beta-1 (Homo sapiens, UniProt P05556+P08648); test: Agonist activity at integrin alpha5beta1 in human OV-MZ-6 cells assessed as increase in FAK expression at 1 nM measured after 30 to 60 mins by Western blot analysis; type: cell-based; details: time 30-60 min
[2] = molecular target: T1, Integrin alpha-5/beta-1; test: Agonist activity at integrin alpha5beta1 in human OV-MZ-6 cells assessed as fold increase in FAK expression at 1 nM measured after 5 mins by Western blot analysis (reference value: 1); type: cell-based; details: filed as agonist
[3] = molecular target: T1, Integrin alpha-5/beta-1; test: Agonist activity at integrin alpha5beta1 in human OV-MZ-6 cells assessed as increase in p-ERK1/2 expression at 1 uM incubated for 24 hrs by Western blot analysis; type: cell-based
[4] = tested on: OV-MZ-6; test: Inhibition of cell migration in human OV-MZ-6 cells expressing integrin alpha5beta1 assessed as delay in wound gap closure at 1 uM measured within 72 hrs by wound scratch assay; type: functional, cell-based
[5] = molecular target: T2, Integrin alpha-V/beta-3 (Homo sapiens, UniProt P05106+P06756); test: Agonist activity at integrin alphaVbeta3 in human M21 cells assessed as increase in p-FAK expression at 1 nM incubated for 5 to 60 mins by Western blot analysis; type: cell-based; details: time 5-60 min
[6] = tested on: OV-MZ-6; test: Inhibition of cell adhesion in human OV-MZ-6 cells expressing integrin alpha5beta1 at 1 nM measured after 48 hrs by microscopic imaging analysis; type: functional, cell-based
[7] = tested on: M21; test: Inhibition of cell migration in human M21 cells expressing integrin alphaVbeta3 assessed as delay in wound gap closure at 1 to 1000 nM measured after 9 to 72 hrs by wound scratch assay; type: functional, cell-based; details: dose 1-1000 nM, time 9-72 hrs
[8] = molecular target: T1, Integrin alpha-5/beta-1; test: Agonist activity at integrin alpha5beta1 in human OV-MZ-6 cells assessed as increase in FAK expression at 1 uM measured after 5 to 60 mins by Western blot analysis; type: cell-based; details: time 5-60 min
[9] = molecular target: T1, Integrin alpha-5/beta-1; test: Agonist activity at integrin alpha5beta1 in human OV-MZ-6 cells assessed as increase in p-FAK expression at 1 uM incubated for 24 hrs by Western blot analysis; type: cell-based
[10] = molecular target: T3, Integrin alpha-V/beta-6 (Homo sapiens, UniProt P06756+P18564); test: Agonist activity at integrin alphaVbeta6 in human HN cells assessed as fold increase in p-FAK expression at 1 uM measured within 30 mins by Western blot analysis (reference value: 1); type: cell-based; details: filed as agonist
[11] = tested on: OV-MZ-6; test: Inhibition of cell migration in human OV-MZ-6 cells expressing integrin alpha5beta1 assessed as delay in wound gap closure at 1 uM measured within 24 hrs by wound scratch assay; type: functional, cell-based
[12] = molecular target: T2, Integrin alpha-V/beta-3; test: Agonist activity at integrin alphaVbeta3 in human M21 cells assessed as increase in FAK expression at 1 nM incubated for 5 to 60 mins by Western blot analysis; type: cell-based; details: time 5-60 min
[13] = tested on: OV-MZ-6; test: Inhibition of cell migration in human OV-MZ-6 cells expressing integrin alpha5beta1 assessed as delay in wound gap closure at 1 nM measured after 9 to 72 hrs by wound scratch assay; type: functional, cell-based; details: time 9-72 hrs
[14] = molecular target: T3, Integrin alpha-V/beta-6; test: Agonist activity at integrin alphaVbeta6 in human HN cells assessed as fold increase in p-FAK expression at 1 nM measured within 30 mins by Western blot analysis (reference value: 1); type: cell-based; details: filed as agonist
[15] = molecular target: T2, Integrin alpha-V/beta-3; test: Agonist activity at integrin alphaVbeta3 in human M21 cells assessed as increase in p-ERK1/2 expression at 1 uM incubated for 24 hrs by Western blot analysis; type: cell-based; details: filed as agonist
[16] = tested on: OV-MZ-6; test: Inhibition of cell adhesion in human OV-MZ-6 cells expressing integrin alpha5beta1 at 1 uM measured after 48 hrs by microscopic imaging analysis; type: functional, cell-based
[17] = molecular target: T1, Integrin alpha-5/beta-1; test: Competitive binding affinity to human Integrin alpha5beta1 incubated for 1 hrs in presence of fibronectin by ELISA based spectrophotometric analysis; type: protein-complex assay
[18] = molecular target: T3, Integrin alpha-V/beta-6; test: Competitive binding affinity to human Integrin alphaVbeta6 incubated for 1 hrs in presence of […] of TGF-beta1 by ELISA based spectrophotometric analysis; type: protein-complex assay
[19] = molecular target: T2, Integrin alpha-V/beta-3; test: Competitive binding affinity to human Integrin alphaVbeta3 incubated for 1 hrs in presence of vitronectin by ELISA based spectrophotometric analysis; type: protein-complex assay
[20] = Drug uptake in human M21 cells overexpressing integrin alphaVbeta3 at 1 uM measured at 60 to 300 mins by Hoechst 33342 staining based fluorescence analysis; type: ADME, cell-based; details: m21, 1 µM, time 60-300 min
[21] = Drug localization in cell membrane of human RKO cells overexpressing integrin alpha5beta1 at 1 uM measured within 3 mins by CellMask green staining based fluorescence analysis; type: ADME, cell membranes; details: 0.05 h
[22] = Drug uptake in human RKO cells overexpressing integrin alpha5beta1 at 1 uM measured at 60 to 300 mins by Hoechst 33342 staining based fluorescence analysis; type: ADME, cell-based; details: time 60-300 min
[23] = Drug localization in cell membrane of human RKO cells overexpressing integrin alpha5beta1 at 1 uM measured at 30 mins by CellMask green staining based fluorescence analysis; type: ADME, cell membranes; details: 0.5 h

## C#CCCC(=O)NCCCOc1cc(C)c(C(=O)N[C@@H](CNC(=O)CNC(=O)c2cccc(NC(=N)N)c2)C(=O)O)c(C)c1
[1]
  Activity: inactive
[2]
  fold change (FC): 1.6
[3]
  Activity: inactive
[4]
  inhibition: inactive
[5]
  Activity: Not active; Slight Increase Compared To Control Observed
[6]
  inhibition: inactive
[7]
  inhibition: inactive
[8]
  Activity: inactive
[9]
  Activity: inactive
[10]
  fold change (FC): 3
[11]
  inhibition: Active
[12]
  Activity: inactive
[13]
  inhibition: inactive
[14]
  fold change (FC): 4
[15]
  Activity: Active
[16]
  inhibition: Active

## CC(C)C[C@H](NC(=O)[C@H](CO)NC(=O)[C@H](CC(=O)O)NC(=O)[C@H](CC(C)C)NC(=O)[C@H](CC(=O)O)NC(=O)[C@@H](NC(=O)[C@@H](N)CCCNC(=N)N)[C@@H](C)O)C(=O)N[C@@H](CCCNC(=N)N)C(=O)N[C@H](C(=O)O)[C@@H](C)O
[17]
  pIC50: < 6.00
[18]
  pIC50: 7.53
[19]
  pIC50: < 6.00

## Cc1cc(OCCCNC(=O)CCCCCNC(=O)CCCCC[N+]2=C(/C=C/C=C/C=C3/N(C)c4ccc5ccccc5c4C3(C)C)C(C)(C)c3c2ccc2ccccc32)cc(C)c1C(=O)N[C@@H](CNC(=O)CNC(=O)c1cccc(NC(=N)N)c1)C(=O)O
[20]
  Drug uptake: Not_active
[21]
  Drug uptake: Active
[22]
  Drug uptake: Active
[23]
  Drug uptake: Active
